Patent US20250215039A1, “NUCLEOSIDES FOR TREATING CANCER” (PRIMEFOUR THERAPEUTICS, INC., priority 2022, published 2025)
Like-named read-outs stand apart in the source and are kept apart here.

System: cancer cell lines
Experiment: Cancer cell proliferation activity (CellTiterGlo, 72 h)
Assay type: cell-based
Conditions: 72 h, 72 h, read-out: IC50
Description: Dose response relationships on cell proliferation was assessed for representative Compounds of the Disclosure on cancer cell lines. Briefly, compound treatment of cells started one day after seeding with a final DMSO concentration of 0.1%, and was performed by nanodrop-dispensing using a Tecan Dispenser. 0.1% DMSO (solvent) and Staurosporine (10 μM) served as high control (100% viability) and low control (0% viability), respectively.
Cells were cultured in the appropriate media. For the assays, cells were seeded in white cell culture-treated flat and clear bottom multiwell plates and incubated at 37° C. overnight before compound was added. After incubation for 72 h at 37° C. at 5% or 10% CO2 dependent on the medium, cell plates were equilibrated to room temperature for one hour, CellTiterGlo reagent (Promega) was added and luminescence was measured approximately an hour later using a luminometer.
Raw data were converted into percent cell viability relative to the high and low control, which were set to 100% and 0%, respectively.
The IC50 values are summarized in Tables 9A-1, Table 10A, and Table 10B.

Measured: IC50

CC[C@]1(CO)O[C@@H](n2cc(F)c(N)nc2=O)C[C@@H]1O [Cpd. No. 2, 4-amino-1-((2R,4S,5R)-5-ethyl-4-hydroxy-5-(hydroxymethyl)tetrahydrofuran-2-yl)-5-fluoropyrimidin-2(1H)-one]
17 µM: Homo sapiens, SK-BR-3, 72 h, SKBR3 cell line (breast)
5.15 µM: Homo sapiens, NCI-H460, 72 h, NCIH460 cell line (lung)
> 50 µM: CLS439 cell line (bladder) | HS729 cell line (muscle) | JAR cell line (placenta) | U20S cell line, bone | Homo sapiens, 22Rv1, 72 h, 22RV1 cell line (prostate) | Homo sapiens, 786-0, 72 h, 786O cell line (kidney) | Homo sapiens, A549, 72 h, A549 cell line, lung | Homo sapiens, A673, 72 h, A673 cell line (bone) | Homo sapiens, A2780, 72 h, A2780 cell line (ovary) | Homo sapiens, A-375, 72 h, A375 cell line (skin) | Homo sapiens, A-431, 72 h, A431 cell line (skin) | Homo sapiens, ASPC1, 72 h, ASPC1 cell line (pancreas) | Homo sapiens, BT-20, 72 h, BT20 cell line (breast) | Homo sapiens, BXPC-3, 72 h, BXPC3 cell line (pancreas) | Homo sapiens, COLO 205, 72 h, COLO205 cell line (colon) | Homo sapiens, COLO-678, 72 h, COLO678 cell line (colon) | Homo sapiens, Ca-Ski, CASKI cell line, endometrial | Homo sapiens, Caco-2, 72 h, CACO2 cell line (colon) | Homo sapiens, Calu-6, 72 h, CALU6 cell line (lung) | Homo sapiens, DLD-1, 72 h, DLD1 cell line (colon) | Homo sapiens, DU-145, 72 h, DU145 cell line (prostate) | Homo sapiens, EFO-21, 72 h, EFO21 cell line (ovary) | Homo sapiens, EJ-28, 72 h, EJ28 cell line (bladder) | Homo sapiens, HCT-15, 72 h, HCT15 cell line (colon) | Homo sapiens, HCT-116, 72 h, HCT116 cell line (colon) | Homo sapiens, HEK293, 72 h, HEK293 cell line (kidney) | Homo sapiens, HL-60, 72 h, HL-60 cell line (hematological) | Homo sapiens, HT-29, 72 h, HT29 cell line (colon) | Homo sapiens, HT-1080, 72 h, HT1080 cell line (connective tissue) | Homo sapiens, HeLa, HELA cell line, endometrial | Homo sapiens, HepG2, 72 h, HEPG2 cell line (liver) | Homo sapiens, Hs-578T, HS578T cell line, breast | Homo sapiens, IGROV-1, 72 h, IGROV1 cell line (ovary) | Homo sapiens, IMR-90, 72 h, IMR90 cell line, lung | Homo sapiens, J82, 72 h, J82 cell line (bladder) | Homo sapiens, JEG-3, 72 h, JEG3 cell line (placenta) | Homo sapiens, JIMT-1, 72 h, JIMT1 cell line (breast) | Homo sapiens, K562, 72 h, K-562 cell line (hematological) | Homo sapiens, Kasumi 1, 72 h, KASUMI-1 cell line (hematological) | Homo sapiens, L-363, 72 h, L-363 cell line (hematological) | Homo sapiens, LoVo, LOVO cell line (colon) | Homo sapiens, MCF7, 72 h, MCF7 cell line (breast) | Homo sapiens, MDA-MB-231, 72 h, MDAMB231 cell line (breast) | Homo sapiens, MDA-MB-435, 72 h, MDAMB435 cell line (skin) | Homo sapiens, MDA-MB-436, 72 h, MDAMB436 cell line (breast) | Homo sapiens, MDA-MB-468, 72 h, MDAMB468 cell line (breast) | Homo sapiens, MG-63, 72 h, MG63 cell line (bone) | Homo sapiens, MHH-ES-1, 72 h, MHHES1 cell line (bone) | Homo sapiens, MIA PaCa-2, 72 h, MIAPACA2 cell line (pancreas) | Homo sapiens, NCI-H23, 72 h, NCI-H23 cell line (lung) | Homo sapiens, NCI-H82, 72 h, NCIH82 cell line (lung) | Homo sapiens, NCI-H292, 72 h, NCIH292 cell line (lung) | Homo sapiens, OVCAR-3, 72 h, OVCAR3 cell line (ovary) | Homo sapiens, OVCAR-4, 72 h, OVCAR4 cell line (ovary) | Homo sapiens, PANC-1, 72 h, PANC1 cell line (pancreas) | Homo sapiens, PC-3, 72 h, PC3 cell line (prostate) | Homo sapiens, PLC-PRF-5, 72 h, PLCPRF5 cell line (liver) | Homo sapiens, Panc1005, 72 h, PANC1005 cell line (pancreas) | Homo sapiens, RD, RD cell line (muscle) | Homo sapiens, SAOS-2, 72 h, SAOS2 cell line (bone) | Homo sapiens, SF-268, 72 h, SF268 cell line (brain) | Homo sapiens, SF-295, 72 h, SF295 cell line (brain) | Homo sapiens, SK-HEP1, 72 h, SKHEP1 cell line (liver) | Homo sapiens, SK-LMS-1, 72 h, SKLMS1 cell line (uterus) | Homo sapiens, SK-MEL-5, 72 h, SKMEL5 cell line, skin | Homo sapiens, SK-MEL-28, 72 h, SKMEL28 cell line (skin) | Homo sapiens, SK-N-AS, SKNAS cell line (brain) | Homo sapiens, SK-N-SH, SKNSH cell line (brain) | Homo sapiens, SK-OV-3, 72 h, SKOV3 cell line (ovary) | Homo sapiens, SNB-75, 72 h, SNB75 cell line (brain) | Homo sapiens, SU-DHL-6, 72 h, SU-DHL-6 cell line (hematological) | Homo sapiens, SW-620, 72 h, SW620 cell line (colon) | Homo sapiens, T-24, 72 h, T24 cell line (bladder) | Homo sapiens, TE-671, 72 h, TE671 cell line (muscle) | Homo sapiens, THP-1, 72 h, THP-1 cell line (hematological) | Homo sapiens, U-87 MG, U87MG cell line (brain) | Homo sapiens, UMUC3, 72 h, UMUC3 cell line (bladder) | Homo sapiens, UO-31, 72 h, UO31 cell line (kidney) | MT-3, 72 h, MT3 cell line (breast) | NCI-H358M, NCIH358M cell line (lung) | PBMC, PBMC (hematological) | RD-ES, RDES cell line (bone)
3.4 µM: Homo sapiens, MV4-11, 72 h, MV4-11 cell line (hematological)
1 µM: Homo sapiens, A204, 72 h, A204 cell line (muscle)
0.25 µM: Homo sapiens, MINO, MINO cell line (hematological)
2.5 µM: Homo sapiens, WSU-NHL, WSU-NHL cell line (hematological)
8.67 µM: 5637 cell line (bladder)
3.2 µM: Homo sapiens, ACHN, ACHN cell line (kidney)
1.77 µM: Homo sapiens, Ramos, RAMOS cell line (hematological)
1.97 µM: Homo sapiens, SU-DHL10, 72 h, SU-DHL-10 cell line (hematological)
1.12 µM: Homo sapiens, Granta-519, 72 h, GRANTA-519 cell line (hematological)
1.36 µM: Homo sapiens, CAKI-1, 72 h, CAKI1 cell line (kidney)
4.92 µM: Homo sapiens, C-33-A, C33A cell line, endometrial
